# Results as given in patent US12195462B2, “Organic compound” (INTRA-CELLULAR THERAPIES, INC., priority 2018, dated 2025).
# Assays:
# [1] = biological target: T1, human D2S receptor (Homo sapiens (Human), UniProt P14416); experiment: Cell-based functional cAMP assay, antagonist signaling (reversal of quinpirole inhibition)
# [2] = biological target: T1, human D2S receptor; experiment: Cell-based functional cAMP assay, agonist signaling (inhibition of forskolin-stimulated cAMP)
# [3] = Rat PK study of the compound of Example 1; assay type: in vivo
# Method: (§1) Surgically modified rats are housed one per cage, and supplied with water and a commercial rodent diet ad libitum prior to study initiation. Food is withheld from the animals for a minimum of twelve hours before and during the study, until four hours post-dose, at which time food is returned. Animals are dosed IV, SC and PO, and blood samples are collected following the study design in the following table. Blood samples (˜0.25 mL) are collected via JVC or tail vein, placed into chilled blood collection tubes containing sodium heparin as the anticoagulant, and kept on ice until centrifugation. Blood samples are then centrifuged at a temperature of 2 to 8° C., at 3,000 g, for 5 minutes. Drug levels in the plasma samples are quantified via HPLC with MS/MS detection. Pharmacokinetic parameters based on the group geomean concentration versus time data, are calculated using a noncompartmental pharmaceutical data analysis software PK Solutions 2.0 (Summit Research Services, Montrose, Colo.).
# [4] = biological target: SERT (Homo sapiens (Human), UniProt P31645); experiment: Binding, SERT
# [5] = biological target: Mu opiate receptor (Homo sapiens (Human), UniProt P35372); experiment: Receptor binding, Mu opiate receptor
# [6] = Rat PK studies of the compound of Example 3; settings: Study One, IV 1 mg/kg
# [7] = Rat PK study of the compound of Example 2; assay type: in vivo
# Method: as §1
# This study is performed according to the same procedure as outlined in Example 5a, with the blood samples collected as shown in the table below.
# [8] = test system: patients with acute exacerbated schizophrenia; experiment: Clinical studies of patients with acute exacerbated schizophrenia; assay type: in vivo; settings: once daily 60 mg P.O., up to 28 days
# Source text: Social avoidance can be a critical and debilitating symptom in patients suffering from anxiety disorders, especially social anxiety disorder, as well as in patients suffering from traumatic anxiety disorders. Social avoidance is often one of the key determinants of whether a person with a severe anxiety disorder is capable of maintaining familial relationships or employment relationships. […] Negative symptoms of schizophrenia can be divided into two categories: emotional experience (e.g., emotional withdrawal, passive social withdrawal, active social avoidance) and emotional expression (e.g., blunted effect, poor rapport, lack of spontaneity, and motor retardation). […] These are the symptoms that are most highly correlated with interpersonal functioning.
# [9] = test system: rat mPFC slices
# [10] = test system: patients with major depressive episodes; settings: 40-minute infusion, total dose 0.5 mg/kg, after 24 hours; cited from earlier work
# Mu opiate receptor, sequence (P35372 whole entry): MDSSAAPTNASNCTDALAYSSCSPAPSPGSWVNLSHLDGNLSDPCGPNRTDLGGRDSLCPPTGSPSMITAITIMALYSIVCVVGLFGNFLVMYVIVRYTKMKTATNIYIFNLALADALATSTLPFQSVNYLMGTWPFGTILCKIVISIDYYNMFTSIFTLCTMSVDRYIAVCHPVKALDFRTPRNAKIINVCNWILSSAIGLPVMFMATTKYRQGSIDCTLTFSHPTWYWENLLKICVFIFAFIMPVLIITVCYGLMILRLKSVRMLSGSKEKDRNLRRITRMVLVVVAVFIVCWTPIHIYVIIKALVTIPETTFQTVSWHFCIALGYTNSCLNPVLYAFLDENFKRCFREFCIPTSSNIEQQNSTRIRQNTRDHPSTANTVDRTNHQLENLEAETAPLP
# T1 sequence (P14416 other isoform, or with tags, fused parts or gaps): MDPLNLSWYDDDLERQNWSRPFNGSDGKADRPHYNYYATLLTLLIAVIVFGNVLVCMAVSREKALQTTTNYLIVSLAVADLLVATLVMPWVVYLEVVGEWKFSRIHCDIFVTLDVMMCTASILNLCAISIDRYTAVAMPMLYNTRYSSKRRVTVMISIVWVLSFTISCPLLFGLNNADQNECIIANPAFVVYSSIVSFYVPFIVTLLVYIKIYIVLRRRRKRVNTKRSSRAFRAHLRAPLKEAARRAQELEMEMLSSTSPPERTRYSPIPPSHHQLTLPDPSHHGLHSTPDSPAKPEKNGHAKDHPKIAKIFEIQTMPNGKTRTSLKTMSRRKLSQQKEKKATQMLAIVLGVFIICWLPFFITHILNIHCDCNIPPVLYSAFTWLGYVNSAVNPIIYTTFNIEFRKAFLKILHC
# SERT, sequence (P31645 whole entry): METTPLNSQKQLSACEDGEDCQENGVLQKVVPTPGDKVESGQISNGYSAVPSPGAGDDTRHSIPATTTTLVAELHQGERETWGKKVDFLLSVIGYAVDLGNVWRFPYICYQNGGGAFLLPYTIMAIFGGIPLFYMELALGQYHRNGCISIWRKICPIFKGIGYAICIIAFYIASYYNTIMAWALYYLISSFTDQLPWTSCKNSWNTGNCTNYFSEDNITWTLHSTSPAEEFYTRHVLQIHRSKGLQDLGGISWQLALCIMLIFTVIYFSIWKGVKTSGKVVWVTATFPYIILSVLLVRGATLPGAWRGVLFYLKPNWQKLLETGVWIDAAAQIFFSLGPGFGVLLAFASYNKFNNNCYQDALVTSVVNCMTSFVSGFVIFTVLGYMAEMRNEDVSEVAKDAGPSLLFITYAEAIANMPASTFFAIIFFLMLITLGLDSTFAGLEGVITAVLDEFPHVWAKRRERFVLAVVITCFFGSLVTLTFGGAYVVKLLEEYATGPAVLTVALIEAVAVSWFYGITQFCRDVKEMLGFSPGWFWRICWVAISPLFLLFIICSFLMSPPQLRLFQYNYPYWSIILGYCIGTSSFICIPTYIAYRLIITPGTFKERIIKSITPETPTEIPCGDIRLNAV
compound,measurement,setting,value
"CN1C(=O)CN2c3c(cccc31)[C@@H]1CN(CCCOc3ccc(F)cc3)CC[C@@H]12 [Compound 1, (6bR,10aS)-8-(3-(4-fluorophenoxy)propyl)-3-methyl-6b,7,8,9,10,10a-hexahydro-1H-pyrido[3′,4′:4,5]pyrrolo[1,2,3-de]quinoxalin-2(3H)-one]",antagonist activity at the D2S receptor (in words),[1],antagonist activity
same,agonist activity at the D2S receptor (in words),[2],no detectable agonist activity
same,Agonist EC50,"[2]; CHO-K1 hD2S, 10 μM forskolin",no activity
same,t-1/2,[3]; IV 1 mg/kg,1.0 h
same,AUC,"[3]; plasma, IV 1 mg/kg",270 ng·h/mL
same,Cmax,"[3]; plasma, IV 1 mg/kg",505 ng/mL
same,bioavailability,"[3]; plasma, IV 1 mg/kg",100%
same,concentration at 30 min,"[3]; plasma, IV 1 mg/kg",116 ng/mL
same,concentration at 1 h,"[3]; plasma, IV 1 mg/kg",70 ng/mL
same,concentration at 6 h,"[3]; plasma, IV 1 mg/kg",1.6 ng/mL
same,AUC,"[3]; plasma, PO 1 mg/kg",22.6 ng·h/mL
same,Cmax,"[3]; plasma, PO 1 mg/kg",5 ng/mL
same,bioavailability,"[3]; plasma, PO 1 mg/kg",10%
same,concentration at 30 min,"[3]; plasma, PO 1 mg/kg",4.2 ng/mL
same,concentration at 1 h,"[3]; plasma, PO 1 mg/kg",2.9 ng/mL
same,concentration at 6 h,"[3]; plasma, PO 1 mg/kg",1.4 ng/mL
same,AUC,"[3]; plasma, SC 1 mg/kg",247 ng·h/mL
same,Cmax,"[3]; plasma, SC 1 mg/kg",34 ng/mL
same,bioavailability,"[3]; plasma, SC 1 mg/kg",90%
same,concentration at 30 min,"[3]; plasma, SC 1 mg/kg",23.6 ng/mL
same,concentration at 1 h,"[3]; plasma, SC 1 mg/kg",28.1 ng/mL
same,concentration at 6 h,"[3]; plasma, SC 1 mg/kg",12.8 ng/mL
same,concentration at 24 h,"[3]; plasma, SC 1 mg/kg",1.3 ng/mL
"O=C1CN2c3c(cccc3[C@@H]3CN(CCCOc4ccc(F)cc4)CC[C@@H]32)N1 [Formula A, (6bR,10aS)-8-(3-(4-fluorophenoxy)propyl)-6b,7,8,9,10,10a-hexahydro-1H-pyrido[3′,4′:4,5]pyrrolo[1,2,3-de]quinoxalin-2(3H)-one]",SERT activity (in words),[4],relatively weak SERT antagonist
same,mu-opiate activity (in words),[5],very strong mu-opiate antagonist
same,t-1/2,[6],1.1 h
"CN1CCN2c3c(cccc31)[C@@H]1CN(CCCC(=O)c3ccc(F)cc3)CC[C@@H]12 [Formula B, 4-((6bR,10aS)-3-methyl-2,3,6b,9,10,10a-hexahydro-1H-pyrido-[3′,4′:4,5]-pyrrolo[1,2,3-de]quinoxalin-8-(7H)-yl)-1-(4-fluorophenyl)-1-butanone]",SERT activity (in words),[4],very strong SERT antagonist
same,mu-opiate activity (in words),[5],no mu-opiate activity
same,Ki,"[5]; Mu opiate receptor, read-out: Ki (nM) or maximum inhibition",> 10000 nM
same,t-1/2,[7]; IV 1 mg/kg,1.4 h
same,AUC,"[7]; plasma, IV 1 mg/kg",231 ng·h/mL
same,bioavailability,"[7]; plasma, IV 1 mg/kg",100%
same,concentration at 30 min,"[7]; plasma, IV 1 mg/kg",92.5 ng/mL
same,concentration at 6 h,"[7]; plasma, IV 1 mg/kg",3.1 ng/mL
same,concentration at 12 h,"[7]; plasma, IV 1 mg/kg",0.5 ng/mL
same,AUC,"[7]; plasma, PO 10 mg/kg",56 ng·h/mL
same,Cmax,"[7]; plasma, PO 10 mg/kg",13.8 ng/mL
same,bioavailability,"[7]; plasma, PO 10 mg/kg",2%
same,concentration at 30 min,"[7]; plasma, PO 10 mg/kg",12.2 ng/mL
same,concentration at 1 h,"[7]; plasma, PO 10 mg/kg",13.8 ng/mL
same,concentration at 6 h,"[7]; plasma, PO 10 mg/kg",1.5 ng/mL
same,concentration at 12 h,"[7]; plasma, PO 10 mg/kg",0.3 ng/mL
same,AUC,"[7]; plasma, SC 45 mg/kg",7630 ng·h/mL
same,Cmax,"[7]; plasma, SC 45 mg/kg",747 ng/mL
same,bioavailability,"[7]; plasma, SC 45 mg/kg",73%
same,concentration at 30 min,"[7]; plasma, SC 45 mg/kg",705 ng/mL
same,concentration at 1 h,"[7]; plasma, SC 45 mg/kg",700 ng/mL
same,concentration at 6 h,"[7]; plasma, SC 45 mg/kg",498 ng/mL
same,concentration at 12 h,"[7]; plasma, SC 45 mg/kg",168 ng/mL
same,concentration at 24 h,"[7]; plasma, SC 45 mg/kg",12.3 ng/mL
same,symptoms of emotional experience compared to placebo,[8],significant and unexpected improvement in symptoms of emotional experience
same,glutamatergic neurotransmission (NMDA and AMPA receptor conductance),[9],enhances glutamatergic neurotransmission
CNC1(c2ccccc2Cl)CCCCC1=O (centres unmarked) [ketamine],ratings on the Hamilton Depression Rating Scale (HDRS) compared to placebo,[10],significantly improved ratings
